pIC50: −log10 of the molar value. Several values for one entry are separate records, joined by “and”; a condition that tells them apart may be missing. Equal entries are not always repeated. Structures can show the parent of a compound that is named as a salt. Where two headings read alike, the source gives them in different places.
Tests used:
[1] = test system: NCI-Adr resistant; assay: SRB cytotoxicity, P-glycoprotein expressing cells with and without verapamil; assay type: cell-based; settings: for pIC50: Homo sapiens, NCI/ADR-RES, 72 h, SRB; for relative resistance, NCI-Adr resistant −/+ verapamil: individual experiments; for RR (relative resistance) NCI-Adr resistant −/+ verapamil: ratio of mean IC50
Experimental: In these experiments, the P-glycoprotein expressing NCI-Adr resistant subline (Vickers et al., 1989. Mol Endocrinology 3 (1):157-164) was used. […] Briefly, cells were plated in 96 well dishes 24 hours prior to compound addition. Where noted, they were exposed to verapamil for 4 hours prior to compound addition and then throughout the treatment period (72 hours). The assay was terminated with the addition of cold TCA to a final concentration of 10% and the plates were incubated for one hour at 4° C. The plates were then washed 5 times with water and 100 μl of a Sulforhodamine B solution (4%) was added to each well. The plate was then incubated for 10 minutes at room temperature before removal of unbound dye by washing with 1% acetic acid.

[2] = biological target: T1, CDKs; assay: Kinase panel, CDKs (average/range); assay type: biochemical
T1 construct: IC50 range over CDK1-7; other: 6 CDKs / CDK1-7; Cdk2/his-cyclin Eshort was expressed in Sf9 cells; Cdk2/cyclin A, cdk4/cyclin D1, and cdk6/cyclin D2 were expressed in Sf9 cells

[3] = biological target: T2, c-Src (Homo sapiens, UniProt P12931); assay: c-Src kinase assay; assay type: biochemical
T2 construct: purchased Upstate 14-326
Experimental: • 1. Src Kinase Reaction Buffer (SrcRB), Catalog #20-121: 100 mM Tris-HCl, pH 7.2, 125 mM MgCl2, 25 mM MnCl2, 2 mM EGTA, 0.25 mM sodium ortovanadate, 2 mM dithiothreitol. • 2. [γ-^32P]ATP: Stock 1 mCi/100 μl (3000 Ci/mmol, obtained from DuPont-NEN). Make 10 μl aliquots (100 μCi/vial). Before starting the assay dilute an aliquot to 1 μCi/μl with 90 μl of 500 μM unlabeled ATP containing 75 mM MnCl2 20 mM MOPS, pH 7.2, 25 mM β-glycerophosphate, 5 mM EGTA, 1 mM Na3VO4, 1 mM dithiothreitol. • 3. Src Kinase Substrate Peptide (Catalog #12-140): Use a 0.6-1.5 mM stock. Rehydrate 1 mg peptide with […] distilled water or SrcRB for a 1.5 mM stock or with 998 μl for a 0.6 mM stock. • 4. Src, active: Use 20-80 Units per assay point. Dilute as required with SrcRB.
• 1. Add 10 μl of SrcRB into a microfage tube. • 2. Add 10 μl Src Kinase substrate peptide (93-375 μM/assay). • 3. Add 4-16 μl of Src, active (20-80 Units/assay). • 4. Add 10 μl of the diluted [γ-^32P]ATP. • 5. Incubate for 10 minutes at 30° C. • 6. Add 20 μl of 40% TCA and incubate for 5 minutes at room temperature. • 7. Transfer 25 μl to the center of a 2 cm×2 cm P81 paper square. • 8. Wash the assay squares five times for 5 minutes each with 0.75% phosphoric acid. • 9. Wash the assay squares once with acetone for 5 minutes. • 10. Transfer the assay squares to a scintillation vial and add 5 ml scintillation cocktail. • 11. Read in scintillation counter. Compare cpm of enzyme samples to cpm of control samples that contain no enzyme (background control).

[4] = biological target: T3, MKK6 (Homo sapiens, UniProt P52564); assay: MKK6 kinase assay; assay type: biochemical
T3 construct: purchased Upstate 14-303
T3 sequence (P52564 1-334): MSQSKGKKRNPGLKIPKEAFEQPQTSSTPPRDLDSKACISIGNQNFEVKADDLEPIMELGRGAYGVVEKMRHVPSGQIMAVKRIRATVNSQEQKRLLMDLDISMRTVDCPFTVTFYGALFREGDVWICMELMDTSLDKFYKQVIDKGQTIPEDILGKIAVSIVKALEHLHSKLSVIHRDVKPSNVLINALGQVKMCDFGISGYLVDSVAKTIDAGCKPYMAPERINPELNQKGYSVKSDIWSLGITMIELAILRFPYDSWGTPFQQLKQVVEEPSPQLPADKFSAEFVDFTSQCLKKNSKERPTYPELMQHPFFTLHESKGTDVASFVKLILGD
Experimental: • 1. Reaction Buffer (RB): 50 mM Tris-HCl, pH 7.5, 0.1 mM EGTA, 0.1% 2-mercaptoethanol, 0.1 mM sodium orthovanadate, 10 mM MgAc. • 2. Magnesium/ATP Cocktail (Catalog #20-113): 500 μM cold ATP and 75 mM magnesium chloride in 20 mM MOPS, pH 7.2, 25 mM β-glycerol phosphate, 5 mM EGTA, 1 mM sodium orthovanadate, 1 mM dithiothreitol. • 3. MKK6/SKK3, active: Dilute to 10 ng/μl with Reaction Buffer containing 0.03% Brij-35. Use 5 μl (50 ng) per assay point. • 4. p38a/SAPK2a, unactive (Catalog #14-252): Use 4 μl per assay point. • 5. Myelin Basic Protein (MBP, Catalog #13-104): Prepare a 2 mg/ml stock solution in 20 mM MOPS, pH 7.2, 25 mM β-glycerol phosphate, 5 mM EGTA, 1 mM sodium orthovanadate, 1 mM dithiothreitol. Use 10 μl per assay point. • 6. [γ-^32P]ATP: Stock 1 mCi/100 μl (3000 Ci/mmol, obtained from Perkin Elmer, Catalog #BLU002A). Make 10 μl aliquots (100 μCi/vial). Before starting the assay, dilute the Magnesium/ATP Cocktail 1:1 with sterile, distilled water. Then dilute an aliquot of [γ-^32P]ATP to 1 μCi/μl with 90 μl of the diluted Magnesium/ATP Cocktail. […]
• 1. On ice, add 1 μl RB to a microcentrifuge tube. • 2. Add 4 μl (2 μg) p38α/SAPK2a, unactive. • 3. Add 10 μl of Magnesium/ATP Cocktail. • 4. Add 5 μl (50 ng) MKK6/SKK3, active. • 5. Incubate for 30 minutes shaking at 30° C. • 6. Place on ice and proceed to Stage Two.
• 1. Remove 10 μL of the mixture prepared in Stage One and add to a new microcentrifuge tube. • 2. Add 20 μl of RB. • 3. Add 10 μl of MBP. • 4. Add 10 μl of the diluted [γ-^32P] ATP mixture (1 μCi/μl). • 5. Incubate for 15 minutes shaking at 30° C. • 6. Spot 40 μl on a 2 cm×2 cm P81 paper. • 7. Wash assay squares three times with 0.75% phosphoric acid for 5 minutes per wash. • 8. Wash assay squares once with acetone for five minutes. • 9. Transfer the assay squares to a scintillation vial and add 5 ml scintillation cocktail. • 10. Read in scintillation counter. Compare cpm of enzyme samples to cpm of control samples that contain no active enzyme (background control).

[5] = 6 CDKs / CDK1-7, read-out: average IC50 for CDKs
[6] = read-out: SRC Inhibition (IC50)
[7] = kinase panel, 10 μM ATP, read-out: MAPK 6 / MKK6 IC50
[8] = read-out: MAP2K6 Inhibition (IC50)

T2 sequence (P12931 whole entry): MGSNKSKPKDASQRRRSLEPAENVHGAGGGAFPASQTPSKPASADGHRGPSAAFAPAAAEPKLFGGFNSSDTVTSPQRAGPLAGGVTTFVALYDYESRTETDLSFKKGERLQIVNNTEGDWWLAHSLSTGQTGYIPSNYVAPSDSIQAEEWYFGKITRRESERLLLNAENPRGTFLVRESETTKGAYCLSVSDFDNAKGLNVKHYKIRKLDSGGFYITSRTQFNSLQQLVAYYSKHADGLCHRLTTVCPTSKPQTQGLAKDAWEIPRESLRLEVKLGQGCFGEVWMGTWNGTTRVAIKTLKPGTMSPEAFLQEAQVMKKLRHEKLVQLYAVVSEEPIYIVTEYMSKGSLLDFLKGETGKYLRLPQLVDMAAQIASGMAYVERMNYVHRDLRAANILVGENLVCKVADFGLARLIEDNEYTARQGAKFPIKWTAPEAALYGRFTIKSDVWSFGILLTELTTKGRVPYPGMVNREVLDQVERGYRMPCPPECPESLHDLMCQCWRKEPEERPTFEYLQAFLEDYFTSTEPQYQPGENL

CC(C)N1CCN(C(=O)COc2ccc(-c3n[nH]c4c3C(=O)c3c(NC(=O)NN5CCOCC5)cccc3-4)cc2)CC1 [Compound A37]
pIC50 ([1]; verapamil 12.5 μg/ml): 6.87 | pIC50 ([1]; without verapamil): 5.46 | relative resistance, NCI-Adr resistant −/+ verapamil [1]: about 25 fold | RR (relative resistance) NCI-Adr resistant −/+ verapamil [1]: 25.4 | pIC50 [2, 5]: ~7.38 and 7.38 | pIC50 ([2]; read-out: IC50 range over CDK1-7): 6.81 to 8.52 | pIC50 [3, 6]: > 7.30 | pIC50 [4, 7]: 7.00 to 8.00 | pIC50 [4, 8]: > 6.30

COCCN1CCN(Cc2ccc(-c3n[nH]c4c3C(=O)c3c(NC(=O)NN5CCOCC5)cccc3-4)cc2)CC1 [Compound B16, N-[3-(4-{[4-(2-methoxyethyl)piperazinyl]methyl}phenyl)-4-oxoindeno[2,3-d]pyrazol-5-yl](morpholin-4-ylamino)carboxamide dihydrochloride]
pIC50 ([1]; verapamil 12.5 μg/ml): 7.10 | pIC50 ([1]; without verapamil): 5.73 | relative resistance, NCI-Adr resistant −/+ verapamil [1]: about 25 fold | RR (relative resistance) NCI-Adr resistant −/+ verapamil [1]: 23.4 | pIC50 [2, 5]: ~7.77 | pIC50 ([3]; kinase panel, 10 μM ATP, read-out: c-Src IC50): > 7.00 | pIC50 [3, 6]: > 7.30 | pIC50 [4, 7]: > 7.00 | pIC50 [4, 8]: > 7.00

From patent US20080146555A1, “Uses of Kinase Inhibitors and Compositions Thereof” (GPC Biotech, Inc, priority 2004, published 2008)
